Experimental data published in patent US9999616B2 (ZENITH EPIGENETICS LTD., priority 2013, dated 2018).

Key:
[1] = system: c-myc in Human AML MV4-11 cells; assay: Inhibition of cMYC expression (mRNA, real-time PCR) in MV4-11 cells; format: cell-based; conditions: 3 h treatment, cMYC mRNA by real-time PCR
Outline: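 MV4-11 cells in IMDM with 10% FBS were treated with increasing compound concentrations (DMSO 0.1%) for 3 h at 37 °C, in triplicate. Isolated mRNA was quantified by one-step TaqMan RT-qPCR, cMYC Ct normalized to cyclophilin, and fold expression given relative to DMSO control.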

[2] = system: Human AML MV-4-11 cells; assay: Inhibition of cell proliferation in MV4-11 cells (CellTiter Aqueous One); format: cell-based; conditions: for IC50: MV4-11, 72 h
Outline: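 MV4-11 cells, 5×10^4 per well in IMDM with 10% FBS, were exposed to increasing compound concentrations or 0.1% DMSO for 72 h at 37 °C in triplicate. Viability was read by MTS (CellTiter Aqueous One) absorbance at 490 nm after 3-4 h. IC50 was derived from background-corrected signal relative to DMSO.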

[3] = system: hIL-6 mRNA; assay: Inhibition of hIL-6 mRNA transcription in LPS-stimulated U937 macrophages; format: cell-based, Human; conditions: Homo sapiens, U-937, PMA-differentiated U937 cells, 1 h pretreatment, LPS 3 h, read-out: IL-6 activity
Outline: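 PMA-differentiated U937 macrophages (60 ng/mL PMA, 3 days) pretreated 1 h with compound in 0.1% DMSO, then stimulated with 1 ug/mL E. coli LPS for 3 h at 37° C. IL-6 mRNA quantified by one-step TaqMan qRT-PCR, normalized to cyclophilin; fold expression relative to control, triplicate wells.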

[4] = target: Brd4 bromodomain 1 (BRD4(1)) (Homo sapiens, UniProt O60885); assay: Inhibition of tetra-acetylated histone H4 binding to Brd4 bromodomain 1, measured by FRET (HTRF); design: made in house; host or cells: E. coli BL21(DE3); conditions: 2 h at room temperature
Outline: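 Inhibition was read as a drop in 665 nm relative to 620 nm HTRF signal after 2 h at room temperature, with IC50 from dose-response curves in duplicate wells. Reactions held 200 nM E. coli-expressed His-tagged bromodomain and 25-50 nM biotinylated tetra-acetylated histone H4 peptide. Buffer was 30 mM HEPES pH 7.4 with KF, CHAPS, BSA and 0.2% DMSO.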

Compound	IC50 [1] [nM]	IC50 [2] [nM]	IC50 [3] [nM]	IC50 [4] [nM]	Cell Proliferation activity ([2]; 72 h)
Cc1noc(C)c1-c1cc(N(CCc2ccccc2)CCc2ccccc2)c2nc[nH]c2c1 [Example Compound 151, 6-(3,5-dimethyl-isoxazol-4-yl)-N,N-diphenethyl-1H-benzo[d] imidazol-4-amine]	300 to 3000	300 to 3000	300 to 3000	300 to 3000	
Cc1noc(C)c1-c1cc(-c2cccc(C#N)c2C)c2nc(N3CCOCC3)[nH]c2c1 [Example Compound 203, 3-(6-(3,5-dimethyl-isoxazol-4-yl)-2-morpholino-1H-benzo[d]imidazol-4-yl)-2-methyl benzonitrile]	≤ 300	300 to 3000	≤ 300	≤ 300	
Cc1nc2c(-c3cc(C(F)(F)F)ccc3F)cc(-c3c(C)noc3C)cc2[nH]1 [Example Compound 157, 4-(4-(2-fluoro-5-(trifluoro-methyl)phenyl)-2-methyl-1H-benzo[d]imidazol-6-yl)-3,5-dimethyl isoxazole]	300 to 3000	300 to 3000	300 to 3000	≤ 300	
Cc1noc(C)c1-c1cc(-c2c(C)nn(C)c2C)c2[nH]ncc2c1 [Example Compound 127, 3,5-dimethyl-4-(7-(1,3,5-trimethyl-1H-pyrazol-4-yl)-1H-indazol-5-yl)isoxazole]	≤ 300	≤ 300	≤ 300	≤ 300	
Cc1noc(C)c1-c1cc(-c2cccc(C#N)c2C)c2nc(N3CCC(N)CC3)[nH]c2c1 [Example Compound 209, 3-(2-(4-amino-piperidin-1-yl)-6-(3,5-dimethyl-isoxazol-4-yl)-1H-benzo[d]imidazol-4-yl)-2-methyl benzonitrile]	300 to 3000	≤ 300	300 to 3000	≤ 300	
Cc1nc2c(-c3ccccc3F)cc(-c3c(C)noc3C)cc2[nH]1 [Example Compound 91, 4-(4-(2-fluoro-phenyl)-2-methyl-1H-benzo[d]imidazol-6-yl)-3,5-dimethyl isoxazole]	≤ 300	300 to 3000	≤ 300	≤ 300	
Cc1nc2c(Oc3cc(C(N)=O)ccc3C)cc(-c3c(C)noc3C)cc2[nH]1 [Example Compound 174, 3-((6-(3,5-dimethylisoxazol-4-yl)-2-methyl-1H-benzo[d]imidazol-4-yl)oxy)-4-methylbenzamide]	300 to 3000	300 to 3000	300 to 3000	≤ 300	
Cc1noc(C)c1-c1cc(-c2c(C)noc2C)c2nc(C(F)(F)F)[nH]c2c1 [Example Compound 34, 4,4′-(2-(trifluoromethyl)-1H-benzo[d]imidazole-4,6-diyl)bis(3,5-dimethylixaole)]	300 to 3000	300 to 3000	300 to 3000	≤ 300	
COc1ncc(F)cc1-c1cc(-c2c(C)noc2C)cc2[nH]c(C)nc12 [Example Compound 131, 4-(4-(5-fluoro-2-methoxy-pyridin-3-yl)-2-methyl-1H-benzo[d]imidazol-6-yl)-3,5-dimethyl isoxazole]	300 to 3000	300 to 3000	300 to 3000	300 to 3000	
Cc1nc2c(-c3c(Cl)cncc3Cl)cc(-c3c(C)noc3C)cc2[nH]1 [Example Compound 130, 4-(4-(3,5-dichloro-pyridin-4-yl)-2-methyl-1H-benzo[d]imidazol-6-yl)-3,5-dimethyl isoxazole]	300 to 3000	300 to 3000	≤ 300	≤ 300	
COc1cccc(-c2cc(-c3c(C)noc3C)cc3[nH]c(C)nc23)c1F [Example Compound 152, 4-(4-(2-fluoro-3-methoxy-phenyl)-2-methyl-1H-benzo[d]imidazol-6-yl)-3,5-dimethyl isoxazole]	300 to 3000	300 to 3000	≤ 300	≤ 300	
Cc1noc(C)c1-c1cc(-c2ccnn2C)c2nc[nH]c2c1 [Example Compound 16, 3,5-dimethyl-4-(4-(1-methyl-1H-pyrazol-5-yl)-1H-benzo[d]imidazol-6-yl)isoxazole]	300 to 3000	300 to 3000	≤ 300	≤ 300	
Cc1nc2c(-c3scnc3C)cc(-c3c(C)noc3C)cc2[nH]1 [Example Compound 104, 3,5-dimethyl-4-(2-methyl-4-(4-methyl-thiazol-5-yl)-1H-benzo[d]imidazol-6-yl)isoxazole]	300 to 3000	300 to 3000	≤ 300	≤ 300	
Cc1noc(C)c1-c1cc(-c2cccnc2C(F)(F)F)c2[nH]ncc2c1 [Example Compound 128, 3,5-dimethyl-4-(7-(2-(trifluoromethyl)pyridin-3-yl)-1H-indazol-5-yl)isoxazole]	300 to 3000	300 to 3000	≤ 300	300 to 3000	
COc1ccncc1-c1cc(-c2c(C)noc2C)cc2[nH]c(C)nc12 [Example Compound 72, 4-(4-(4-methoxy-pyridin-3-yl)-2-methyl-1H-benzo[d]imidazol-6-yl)-3,5-dimethyl isoxazole]	300 to 3000	300 to 3000	300 to 3000	≤ 300	
Cc1nc2c(-c3csnc3C)cc(-c3csnc3C)cc2[nH]1 [Example Compound 139, 4,4′-(2-methyl-1H-benzo[d]imidazole-4,6-diyl)bis(3-methylisothiazole)]	3000 to 30000		300 to 3000	300 to 3000	Not active
Cc1ccncc1-c1cc(-c2c(C)noc2C)cc2[nH]c(NC3CCOCC3)nc12 [Example Compound 201, 6-(3,5-dimethyl-isoxazol-4-yl)-4-(4-methyl-pyridin-3-yl)-N-(tetra hydro-2H-pyran-4-yl)-1H-benzo[d] imidazol-2-amine]	≤ 300	≤ 300	≤ 300	≤ 300	
Cc1noc(C)c1-c1cc(-c2cccc(C#N)c2C)c2nc(NC3CCOCC3)[nH]c2c1 [Example Compound 204, 3-(6-(3,5-dimethyl-isoxazol-4-yl)-2-((tetrahydro-2H-pyran-4-yl)amino)-1H-benzo[d]imidazol-4-yl)-2-methyl benzonitrile]	≤ 300	≤ 300	≤ 300	≤ 300	
Cc1nc2c(-c3cc(Cl)ccc3C)cc(-c3c(C)noc3C)cc2[nH]1 [Example Compound 105, 4-(4-(5-chloro-2-methyl-phenyl)-2-methyl-1H-benzo[d]imidazol-6-yl)-3,5-dimethyl isoxazole]	≤ 300	300 to 3000	≤ 300	≤ 300	
Cc1nc2c(CCc3ccccc3)cc(-c3c(C)noc3C)cc2[nH]1 [Example Compound 161, 3,5-dimethyl-4-(2-methyl-4-phenethyl-1H-benzo[d]imidazol-6-yl)isoxazole]	300 to 3000	3000 to 30000	300 to 3000	≤ 300	
Cc1nc2c(-c3csnc3C)cc(-c3c(C)noc3C)cc2[nH]1 [Example Compound 52, 3,5-dimethyl-4-(2-methyl-7-(3-methyliso-thiazol-4-yl)-1H-benzo[d]imidazol-5-yl)isoxazole]	300 to 3000	300 to 3000	300 to 3000	≤ 300	
Cc1nc2c(-c3cccc(C)c3F)cc(-c3c(C)noc3C)cc2[nH]1 [Example Compound 106, 4-(4-(2-fluoro-3-methyl-phenyl)-2-methyl-1H-benzo[d]imidazol-6-yl)-3,5-dimethyl isoxazole]	300 to 3000	300 to 3000	300 to 3000	≤ 300	
Cc1noc(C)c1-c1cc(-c2c(C)noc2C)c2cn[nH]c2c1 [Example Compound 87, 4,4′-(1H-indazole-4,6-diyl)bis(3,5-dimethylisoxazole)]	300 to 3000	300 to 3000	300 to 3000	≤ 300	
Cc1noc(C)c1-c1cc(-c2cccc(C(N)=O)c2C)c2nc(N3CCN(C)CC3)[nH]c2c1 [Example Compound 206, 3-(6-(3,5-dimethyl-isoxazol-4-yl)-2-(4-methyl-piperazin-1-yl)-1H-benzo[d]imidazol-4-yl)-2-methyl benzamide]	300 to 3000	300 to 3000	300 to 3000	≤ 300	
Cc1nc2c(-c3cnc4ccccc4c3)cc(-c3c(C)noc3C)cc2[nH]1 [Example Compound 163, 3,5-dimethyl-4-(2-methyl-4-(quinolin-3-yl)-1H-benzo[d]imidazol-6-yl)isoxazole]	300 to 3000	300 to 3000	300 to 3000	≤ 300	
Cc1nc2c(Oc3cc(C#N)ccc3C)cc(-c3c(C)noc3C)cc2[nH]1 [Example Compound 172, 3-((6-(3,5-dimethyl-isoxazol-4-yl)-2-methyl-1H-benzo[d]imidazol-4-yl)oxy)-4-methyl benzonitrile]	300 to 3000	300 to 3000	300 to 3000	≤ 300	
